Values quoted from earlier work, collected in US20070065414A1, “Enhanced delivery of cells” (Boston Scientific Scimed, Inc., priority 2005, published 2007).

Settings: general statement, no experiment described

blood pool half-life: only a few seconds
Compound: Nc1ncnc2c1ncn2[C@@H]1O[C@H](CO)[C@@H](O)[C@H]1O [Adenosine, adenosine]
